Source: US20250313535A1, “ALPHA 4 BETA 7 INTEGRIN MODULATORS AND USES THEREOF” (DICE MOLECULES SV, INC., priority 2022, published 2025)

What was measured:
Format in all cases: cell-based
[1] = target: T1, α4β7 integrin (Homo sapiens (Human), UniProt P13612+P26010); test: Integrin Adhesion Assay: Protocol 1 (MAdCAM-coated plate, RPMI-8866 cells, CellTiter GLO readout)
Outline: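 RPMI-8866 cells (2×10^6 per mL) added with compounds (1% DMSO) to MAdCAM-coated wells blocked in HEPES/NaCl buffer with 1 mM MnCl2, 0.1 mM CaCl2, 1% BSA; 1 h at 37° C, 5% CO2. After four washes, bound cells read by CellTiter GLO luminescence; % inhibition vs DMSO and control wells, 4-parameter fit.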

[2] = target: T2, α4β1 integrin (Homo sapiens (Human), UniProt P05556+P13612); test: Integrin Adhesion Assay: Protocol 2 (VCAM-coated plate, Jurkat cells, CellTiter GLO readout); details: determined by at least one of the assays described (protocol not specified)
Procedure: α4β7 and α4β1 inhibition was evaluated in vitro using at least one of the following procedures:
Integrin Adhesion Assay: Protocol 2
VCAM (R&D Systems, 0.1 ug) was diluted in 50 μL PBS, added to each well of an opaque ELISA plate (Thermo), and incubated overnight at 4° C. Coated plates were washed once with PBS and then blocked with 200 μL of assay buffer (10 mM HEPES, 150 mM NaCl, 1 mM MnCl2, 0.1 mM CaCl2), 1% BSA) for 1 hour at 37° C. and 5% CO2. After incubation, buffer was aspirated from the plates and 50 μL of fresh assay buffer was added. Compounds were added by compounds dispenser (Tecan) and DMSO concentration was normalized to 1% across each plate. 50 μL of Jurkat cells (2×10^6 per mL) were added to each well and the plates were incubated for 1 hour at 37° C. and 5% CO2. After incubation, plates were allowed to cool to RT for 10 minutes before being washed four times in assay buffer by an automated plate washer (BioTek). After washing, 100 μL of a 1:1 mixture of assay buffer and CellTiter GLO 2.0 reagent (Promega) were added to each well. Plates were mixed for 2 minutes at 1000 rpm and then allowed to incubate an additional 10 minutes before reading out luminescence on a Tecan Spark plate reader. Raw data was converted to percent inhibition based on DMSO only and control compound wells, and curves were analyzed by 4-parameter fit within Dotmatics software.

[3] = target: T1, α4β7 integrin; test: Integrin Adhesion Assay: Protocol 4 (MAdCAM-coated plate, RPMI-8866 cells with stable LOF mutation of the ITGB1 gene)
Outline: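 RPMI-8866 cells with CRISPR/Cas9 knockout of ITGB1 (2×10^6/mL) were added to MAdCAM-coated wells with compound (1% DMSO) in HEPES/NaCl buffer with 1 mM MnCl2, 0.1 mM CaCl2 and 1% BSA, then incubated 1 h at 37 °C. After four washes, adherent cells were quantified by CellTiter-Glo luminescence. Percent inhibition versus DMSO and control compound was fitted to 4-parameter curves.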

[4] = target: T2, α4β1 integrin; test: Integrin Adhesion Assay: Protocol 5 (VCAM-coated plate, RPMI-8866 cells with stable LOF mutation of the ITGB7 gene)
Outline: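 RPMI-8866 B cells with CRISPR/Cas9 ITGB7 knockout (clonal, verified by flow cytometry) adhered to VCAM-coated wells for 1 h at 37° C in HEPES/NaCl buffer with 1 mM MnCl2, 0.1 mM CaCl2, 1% BSA, 1% DMSO. Bound cells quantified by CellTiter-Glo luminescence after washing; % inhibition versus DMSO and control, 4-parameter fit.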

[5] = integrin adhesion assay, determined by at least one of the assays described (protocol not specified)
[6] = RPMI-8866 cells with stable LOF mutation of the ITGB1 gene, read-out: Mean IC50 α4β7 KO^a
[7] = RPMI-8866 cells with stable LOF mutation of the ITGB7 gene, read-out: Mean IC50 α4β1 KO^b
[8] = Protocol 4, RPMI-8866 cells with LOF mutation of ITGB1, MAdCAM, read-out: Mean IC50 α4β7 KO
[9] = Protocol 5, RPMI-8866 cells with LOF mutation of ITGB7, VCAM, read-out: Mean IC50 α4β1 KO

T2 sequence (P13612 34-1032): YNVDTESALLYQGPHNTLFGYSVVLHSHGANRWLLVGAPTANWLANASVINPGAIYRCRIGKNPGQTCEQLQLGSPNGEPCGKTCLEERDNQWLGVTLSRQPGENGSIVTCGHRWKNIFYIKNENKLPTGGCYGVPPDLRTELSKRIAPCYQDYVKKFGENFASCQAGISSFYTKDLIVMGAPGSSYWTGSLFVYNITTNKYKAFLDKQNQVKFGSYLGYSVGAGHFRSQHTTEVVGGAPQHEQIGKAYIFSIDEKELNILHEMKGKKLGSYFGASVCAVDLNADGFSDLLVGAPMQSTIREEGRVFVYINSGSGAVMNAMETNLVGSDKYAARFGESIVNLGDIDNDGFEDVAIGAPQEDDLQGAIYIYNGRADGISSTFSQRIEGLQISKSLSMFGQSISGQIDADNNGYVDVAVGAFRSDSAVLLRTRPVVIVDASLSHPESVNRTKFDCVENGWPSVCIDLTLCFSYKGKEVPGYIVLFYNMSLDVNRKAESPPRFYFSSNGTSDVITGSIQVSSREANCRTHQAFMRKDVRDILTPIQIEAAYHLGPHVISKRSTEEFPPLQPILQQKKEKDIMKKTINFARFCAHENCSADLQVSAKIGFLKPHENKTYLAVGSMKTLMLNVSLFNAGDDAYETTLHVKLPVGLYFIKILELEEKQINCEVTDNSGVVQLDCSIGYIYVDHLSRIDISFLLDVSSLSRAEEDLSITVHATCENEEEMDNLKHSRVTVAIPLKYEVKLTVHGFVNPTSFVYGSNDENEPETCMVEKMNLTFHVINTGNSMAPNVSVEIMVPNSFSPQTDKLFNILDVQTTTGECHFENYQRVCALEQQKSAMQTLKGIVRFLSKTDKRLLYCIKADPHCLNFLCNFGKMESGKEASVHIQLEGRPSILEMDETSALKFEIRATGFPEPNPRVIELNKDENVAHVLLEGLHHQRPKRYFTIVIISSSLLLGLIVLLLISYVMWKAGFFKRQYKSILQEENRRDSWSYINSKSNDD
T2 sequence (P05556 21-798): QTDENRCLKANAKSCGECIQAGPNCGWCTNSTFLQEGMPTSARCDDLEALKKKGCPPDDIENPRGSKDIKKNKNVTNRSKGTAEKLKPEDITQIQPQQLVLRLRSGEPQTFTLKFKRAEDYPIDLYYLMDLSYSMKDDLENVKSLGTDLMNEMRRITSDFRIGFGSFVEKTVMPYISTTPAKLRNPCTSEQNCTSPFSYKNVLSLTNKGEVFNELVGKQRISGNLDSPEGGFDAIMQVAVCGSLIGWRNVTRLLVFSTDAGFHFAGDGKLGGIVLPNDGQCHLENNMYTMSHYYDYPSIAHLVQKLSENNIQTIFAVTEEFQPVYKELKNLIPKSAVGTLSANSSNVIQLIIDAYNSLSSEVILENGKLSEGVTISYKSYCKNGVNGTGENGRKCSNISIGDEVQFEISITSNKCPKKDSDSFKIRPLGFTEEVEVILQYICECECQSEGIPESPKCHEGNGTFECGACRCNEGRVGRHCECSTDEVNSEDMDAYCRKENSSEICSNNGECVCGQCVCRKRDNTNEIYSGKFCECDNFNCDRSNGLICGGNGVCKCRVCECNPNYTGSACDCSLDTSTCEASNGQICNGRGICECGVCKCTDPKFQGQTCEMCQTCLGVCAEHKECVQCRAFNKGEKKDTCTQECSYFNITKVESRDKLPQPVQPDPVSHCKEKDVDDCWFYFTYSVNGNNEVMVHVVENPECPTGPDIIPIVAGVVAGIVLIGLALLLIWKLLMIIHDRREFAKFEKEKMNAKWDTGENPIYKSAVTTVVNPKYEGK
T1 sequence (P13612 34-1032): as the sequence (P13612 34-1032) above
T1 sequence (P26010 20-798): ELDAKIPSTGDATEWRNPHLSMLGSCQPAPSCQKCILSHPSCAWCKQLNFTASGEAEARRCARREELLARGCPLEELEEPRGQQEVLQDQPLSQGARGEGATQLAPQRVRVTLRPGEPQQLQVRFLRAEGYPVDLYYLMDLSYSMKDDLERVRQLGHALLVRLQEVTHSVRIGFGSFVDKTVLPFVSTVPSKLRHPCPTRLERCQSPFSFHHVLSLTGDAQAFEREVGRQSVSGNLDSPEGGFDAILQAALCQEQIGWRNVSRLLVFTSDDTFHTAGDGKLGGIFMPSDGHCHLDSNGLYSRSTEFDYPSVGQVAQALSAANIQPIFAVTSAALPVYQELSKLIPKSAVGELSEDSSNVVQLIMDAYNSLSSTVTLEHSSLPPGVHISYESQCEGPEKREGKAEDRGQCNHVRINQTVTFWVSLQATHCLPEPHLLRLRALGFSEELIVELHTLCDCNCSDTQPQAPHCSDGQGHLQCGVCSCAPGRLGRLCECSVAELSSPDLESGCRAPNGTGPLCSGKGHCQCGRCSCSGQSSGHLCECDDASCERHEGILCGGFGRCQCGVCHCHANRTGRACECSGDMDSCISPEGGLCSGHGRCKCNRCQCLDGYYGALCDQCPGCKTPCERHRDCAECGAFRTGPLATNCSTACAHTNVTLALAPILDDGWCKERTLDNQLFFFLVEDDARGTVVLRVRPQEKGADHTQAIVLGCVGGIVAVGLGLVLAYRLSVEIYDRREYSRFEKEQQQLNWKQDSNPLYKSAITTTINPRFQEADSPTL

| SMILES | IC50 [1, 5] | IC50 [2] | IC50 [3, 6] | IC50 [4, 7] | IC50 [1] | other results |
| --- | --- | --- | --- | --- | --- | --- |
| Cn1ccc(=O)n([C@@H]2CCc3c(C[C@H](NC(=O)c4c(F)cccc4F)C(=O)O)cccc32)c1=O (single isomer, unassigned) [Compound 281] | 10 to 100 nM | > 1000 nM | – | – | – | – |
| Cn1ccc(=O)n([C@H]2CCc3c(C[C@H](NC(=O)c4c(F)cccc4F)C(=O)O)cccc32)c1=O (single isomer, unassigned) [Compound 282] | 100 to 1000 nM | > 1000 nM | – | – | – | – |
| Cn1ccc(=O)n(-c2cccc3c(C[C@H](NC(=O)c4c(F)cccc4F)C(=O)O)cccc23)c1=O [Compound 1] | 10 to 100 nM | 100 to 1000 nM | – | – | – | – |
| O=C(N[C@@H](Cc1cccc2c(-n3c(=O)ccc4cnccc43)cccc12)C(=O)O)c1c(F)cccc1F [Compound 2] | < 10 nM | > 1000 nM | – | – | – | – |
| Cn1c(=O)c2ccccc2n(-c2cccc3c(C[C@H](NC(=O)c4c(F)cccc4F)C(=O)O)cccc23)c1=O [Compound 3] | 10 to 100 nM | > 1000 nM | – | – | – | – |
| Cn1c(=O)ccn(-c2cccc3c(C[C@H](NC(=O)c4c(F)cccc4F)C(=O)O)cccc23)c1=O [Compound 4] | 10 to 100 nM | > 1000 nM | – | – | – | – |
| Cn1ccc(=O)n(-c2cccc3c(C[C@H](NC(=O)c4c(F)cccc4CN4CCC4)C(=O)O)cccc23)c1=O [Compound 7] | 10 to 100 nM | > 1000 nM | – | – | – | – |
| Cn1ccc(=O)n(-c2cccc3c(C[C@H](NC(=O)c4c(F)cc(NS(=O)(=O)C(F)(F)F)cc4F)C(=O)O)cccc23)c1=O [Compound 8] | < 10 nM | 100 to 1000 nM | – | – | – | – |
| Cn1ccc(=O)n(-c2cccc3c(C[C@H](NC(=O)c4c(F)cc(NS(=O)(=O)c5ccccc5)cc4F)C(=O)O)cccc23)c1=O [Compound 9] | < 10 nM | > 1000 nM | – | – | – | – |
| Cn1ccc(=O)n(-c2cccc3c(C[C@H](NC(=O)C4(C)CCOCC4)C(=O)O)cccc23)c1=O [Compound 10] | 10 to 100 nM | 100 to 1000 nM | – | – | – | – |
| Cn1ccc(=O)n(-c2cccc3c(C[C@H](NC(=O)c4c(F)ccc(NS(=O)(=O)C(F)(F)F)c4F)C(=O)O)cccc23)c1=O [Compound 12] | < 10 nM | 100 to 1000 nM | – | – | – | – |
| Cn1ccc(=O)n(-c2cccc3c(C[C@H](NC(=O)c4c(Cl)cccc4Cl)C(=O)O)cccc23)c1=O [Compound 14] | < 10 nM | > 1000 nM | – | – | – | – |
| Cn1ccc(=O)n(-c2cccc3c(C[C@H](NC(=O)c4c(F)cc5nn(CC(F)(F)F)cc5c4F)C(=O)O)cccc23)c1=O [Compound 15] | < 10 nM | 100 to 1000 nM | – | – | – | – |
| Cn1ccc(=O)n(-c2cccc3c(C[C@H](NC(=O)c4c(F)cc5cnn(CC(F)(F)F)c5c4F)C(=O)O)cccc23)c1=O [Compound 16] | < 10 nM | 100 to 1000 nM | – | – | – | – |
| Cc1nccc(F)c1C(=O)N[C@@H](Cc1cccc2c(-n3c(=O)ccn(C)c3=O)cccc12)C(=O)O [Compound 17] | 10 to 100 nM | > 1000 nM | – | – | – | – |
| Cn1ccc(=O)n(-c2cccc3c(C[C@H](NC(=O)C4(C)CCN(CC(F)(F)F)CC4)C(=O)O)cccc23)c1=O [Compound 18] | 10 to 100 nM | > 1000 nM | – | – | – | – |
| Cn1c(=O)c(-c2cccc3c(C[C@H](NC(=O)C4(C(F)(F)F)CCN(CC(F)(F)F)CC4)C(=O)O)cccc23)c(C(F)(F)F)c2ccccc21 [Compound 352] | – | – | 10 to 100 nM | 100 to 1000 nM | 10 to 100 nM | – |
| Cn1c(=O)c(-c2cccc3c(C[C@H](NC(=O)c4c(F)cc(N5CCCCC5)cc4F)C(=O)O)cccc23)c(C(F)(F)F)c2ccccc21 [Compound 354] | – | – | 100 to 1000 nM | > 1000 nM | 100 to 1000 nM | – |

| SMILES | IC50 [1, 5] | IC50 [2] | IC50 [3, 6] | IC50 [4, 7] | IC50 [1] | other results |
| --- | --- | --- | --- | --- | --- | --- |
| Cc1cccc(F)c1C(=O)N[C@@H](Cc1cccc2c(-c3c(C(F)(F)F)c4ccccc4n(C)c3=O)cccc12)C(=O)O [Compound 355] | – | – | 10 to 100 nM | > 1000 nM | 10 to 100 nM | – |
| Cn1c(=O)c(-c2cccc3c(C[C@H](NC(=O)c4c(F)cc(C5CCOCC5)cc4F)C(=O)O)cccc23)c(C(F)(F)F)c2ccccc21 [Compound 373] | – | – | 100 to 1000 nM | > 1000 nM | 100 to 1000 nM | – |
| Cn1c(=O)c(-c2cccc3c(C[C@H](NC(=O)[C@]4(C)CC[C@@H](N5CCS(=O)(=O)CC5)CC4)C(=O)O)cccc23)c(C(F)(F)F)c2ccccc21 [Compound 403] | – | – | 10 to 100 nM | > 1000 nM | 10 to 100 nM | – |
| CN(C)c1ccc2c(c1)c(C(F)(F)F)c(-c1cccc3c(C[C@H](NC(=O)[C@]4(C)CC[C@@H](N5CCC(F)(F)CC5)CC4)C(=O)O)cccc13)c(=O)n2C [Compound 411] | – | – | 100 to 1000 nM | > 1000 nM | 100 to 1000 nM | – |
| Cn1c(=O)c(-c2cccc3c(C[C@H](NC(=O)[C@]4(C(F)(F)F)CC[C@@H](N5CCOC[C@@H]5C(F)(F)F)CC4)C(=O)O)cccc23)c(C(F)(F)F)c2ccccc21 [Compound 422] | – | – | 100 to 1000 nM | > 1000 nM | 10 to 100 nM | – |
| CN(C)Cc1cccc2c(-c3cccc4c(C[C@H](NC(=O)c5c(F)cc(N6CCOC[C@@H]6C(F)(F)F)cc5CN5CCCC5)C(=O)O)cccc34)nccc12 [Compound 433] | – | – | < 10 nM | > 1000 nM | < 10 nM | – |
| Cc1c(F)ccc(F)c1C(=O)N[C@@H](Cc1cccc2c(-c3c(C(F)(F)F)c4ccccc4n(C)c3=O)cccc12)C(=O)O [Compound 444] | – | – | 10 to 100 nM | > 1000 nM | 10 to 100 nM | – |
| CCOCc1cc(OC)c(-c2cccc3c(C[C@H](NC(=O)c4c(C)cccc4F)C(=O)O)cccc23)c(OC)c1 [Compound 448] | – | – | < 10 nM | 100 to 1000 nM | < 10 nM | – |
| Cc1cccc(F)c1C(=O)N[C@@H](Cc1cccc2c(-c3c(C(F)(F)F)c4cc(N(C)C)ccc4n(C)c3=O)cccc12)C(=O)O [Compound 449] | – | – | 100 to 1000 nM | > 1000 nM | 100 to 1000 nM | – |
| COc1ccc(CN(C)C)c(OC)c1-c1cccc2c(C[C@H](NC(=O)c3c(C)cccc3F)C(=O)O)cccc12 [Compound 450] | – | – | < 10 nM | 100 to 1000 nM | < 10 nM | – |
| COc1ccc(CN(C)C)c(OC)c1-c1cccc2c(C[C@H](NC(=O)c3c(F)cccc3CN3CCC(F)(F)CC3)C(=O)O)cccc12 [Compound 452] | – | – | < 10 nM | 100 to 1000 nM | < 10 nM | – |
| CN(C)c1ccc2c(c1)c(C(F)(F)F)c(-c1cccc3c(C[C@H](NC(=O)C4(C(F)(F)F)CCN(CC(F)(F)F)CC4)C(=O)O)cccc13)c(=O)n2C [Compound 454] | – | – | 10 to 100 nM | > 1000 nM | 10 to 100 nM | – |
| Cn1c(=O)c(-c2cccc3c(C[C@H](NC(=O)c4c(F)cccc4CN4CCC(F)(F)C4)C(=O)O)cccc23)c(C(F)(F)F)c2ccccc21 [Compound 456] | – | – | 10 to 100 nM | > 1000 nM | 10 to 100 nM | – |
| Cc1cccc(F)c1C(=O)N[C@@H](Cc1cccc2c(-c3c(C(F)(F)F)ccn(C)c3=O)cccc12)C(=O)O [Compound 460] | – | – | 10 to 100 nM | > 1000 nM | 10 to 100 nM | – |
| CN(C)Cc1ccc2c(c1)c(C(F)(F)F)c(-c1cccc3c(C[C@H](NC(=O)c4c(F)cccc4F)C(=O)O)cccc13)c(=O)n2C [Compound 697] | – | – | – | – | – | IC50 [3, 8]: < 10 nM; IC50 [4, 9]: 100 to 1000 nM; IC50 ([1]; protocol not given): < 10 nM |
| CN(C)Cc1ccc2c(c1)c(C(F)(F)F)c(-c1cccc3c(C[C@H](NC(=O)c4c(F)cc(C(F)(F)F)cc4F)C(=O)O)cccc13)c(=O)n2C [Compound 699] | – | – | – | – | – | IC50 [3, 8]: 10 to 100 nM; IC50 [4, 9]: 100 to 1000 nM; IC50 ([1]; protocol not given): < 10 nM |
| CN(C)c1ccc2c(C(F)(F)F)c(-c3cccc4c(C[C@H](NC(=O)c5c(F)cccc5F)C(=O)O)cccc34)c(=O)n(C)c2c1 [Compound 719] | – | – | – | – | – | IC50 [3, 8]: > 1000 nM; IC50 [4, 9]: > 1000 nM; IC50 ([1]; protocol not given): 100 to 1000 nM |
| O=C(N[C@@H](Cc1cccc2c(-n3cccc(C(F)(F)F)c3=O)cccc12)C(=O)O)c1c(F)cccc1F [Compound 1054] | – | – | – | – | – | IC50 [3, 8]: 10 to 100 nM; IC50 [4, 9]: > 1000 nM; IC50 ([1]; protocol not given): 10 to 100 nM |
